pIC50: −log10 of the molar value.
Columns and labels:
[1] = target: recombinant human p38α MAP kinase (Homo sapiens, UniProt Q16539); assay: Study on p38α MAP kinase inhibitory activity (ATF2 phosphorylation, Alpha Screen); format: biochemical; settings: phosphorylation of biotinylated ATF2 by recombinant human p38α MAP kinase, 30° C. 30 minutes
Procedure: (1) Study on p38α Map Kinase Inhibitory Activity
Using activating transcription factor −2 (hereinafter abbreviated to ATF2) which is a substrate for p38α MAP kinase, the inhibitory action of the compounds of the present invention was investigated on the phosphorylation by a recombinant human p38α MAP kinase.
A kinase buffer (25 mM Tris-HCl (pH 7.5), 5 mM β-glycerophosphate, 2 mM dithiothreitol, 0.1 mM Na3VO4, 10 mM MgCl2) containing a recombinant human p38a MAP kinase was added to a 384-well plate (5 μL)(6.25 ng protein/well) for fluorescence measurement. After addition of a kinase buffer (5 μL) containing the compound of the present invention, the resulting mixture was incubated at room temperature for 20 minutes. […] The amount of a complex of the phosphorylated ATF2 and anti-phosphorylated ATF2 antibody produced by the reaction was measured using an Alpha Screen™ Rabbit Detection kit (Packard #6760607).
The p38α MAP kinase inhibitory activity, which is the effect of the compound of the present invention, was calculated as an inhibition rate (%) according to the following equation: Inhibition rate (%)={(AC−AX)/(AC−AB)}×100
wherein AB is a measured value without addition of the enzyme;
AC is a measured value with addition of the enzyme in the absence of a test compound; and
AX is a measured value with addition of the enzyme in the presence of a test compound. […]

[2] = system: TNF-α production stimulated by lipopolysaccharide (LPS) in THP-1; assay: Inhibitory activity against TNF-α production using human cell lines (THP-1, LPS); format: cell-based; settings: 1.5 h, THP-1 cells, 90 minutes, TNF-α in supernatant by ELISA
Procedure: (2) Inhibitory Activity Against TNF-α Production Using Human Cell Lines
Using THP-1 which is a human monocytic cell line, the inhibitory effect of the compound of the present invention against TNF-α production stimulated by lipopolysaccharide (LPS) was studied.
Each 50 μL of lipopolysaccharide (LPS; Difco #3120-25-0) prepared to a concentration of 40 ng/mL using RPMI-1640 medium containing 10% fetal calf serum (hereinafter abbreviated to RPMI-1640) and RPMI-1640 containing the compound of the present invention was added to a 96-well plate for cell culture. One hundred μL of the cell suspension of THP-1 (Dainippon Pharmaceutical Co., Ltd, #06-202) prepared to a cell density of 2×10^6 cells/mL using RPMI-1640 was added and cultured for 90 minutes at 37° C. in an incubator (5% CO2, 95% air). After completion of the reaction, the culture medium supernatant was recovered and the amount of produced TNF-α was measured using an ELISA kit (Invitrogen, #850090192).
The inhibitory activity against TNF-α production, which is the effect of the compound of the present invention, was calculated as an inhibition rate (%) by the following equation: Inhibition rate (%)={(AC−AX)/(AC−AB)}×100
wherein AB is a measured value without LPS induction;
AC is a measured value with LPS induction in the absence of a test compound; and
AX is a measured value with LPS induction in the presence of a test compound. […]

[3] = system: TNF-α production induced by lipopolysaccharide (LPS) in rats; assay: Rat cytokine-production model; format: in vivo
Procedure: (3) Rat Cytokine-production Model
The in vivo effect of the compound of the present invention was studied on TNF-α production induced by lipopolysaccharide (LPS) in rats.
A vehicle containing the compound of the present invention was orally administered to male Lew mice (Charles River Japan, Inc.), and after 2 hours, lipopolysaccharide (LPS, 055:B5, Difco) was intravenously administered at the dose of 10 μg/kg (5 animals/group). Only a vehicle was orally administered to a control group (5 animals). Ninety minutes after the LPS treatment, heparinized blood collection was performed via the abdominal cava vein under anesthesia with ether, and blood plasma was obtained by centrifugation (12,000 rpm, 3 minutes, 4° C.). The obtained blood plasma sample was stored at −80° C. until it was used. TNF-α in the blood plasma was measured using an ELISA kit from Genzyme/Techne (#10516).
The inhibitory activity of the compound of the present invention against TNF-α production was calculated as an inhibition rate (%) according to the following equation: Inhibition rate (%)={(AC−AX)/AC}×100
wherein AC is a measured value in case where no test compound was administered under LPS induction, and
AX is a measured value in case where a test compound was administered under LPS induction.

Sequence of recombinant human p38α MAP kinase (Q16539 whole entry): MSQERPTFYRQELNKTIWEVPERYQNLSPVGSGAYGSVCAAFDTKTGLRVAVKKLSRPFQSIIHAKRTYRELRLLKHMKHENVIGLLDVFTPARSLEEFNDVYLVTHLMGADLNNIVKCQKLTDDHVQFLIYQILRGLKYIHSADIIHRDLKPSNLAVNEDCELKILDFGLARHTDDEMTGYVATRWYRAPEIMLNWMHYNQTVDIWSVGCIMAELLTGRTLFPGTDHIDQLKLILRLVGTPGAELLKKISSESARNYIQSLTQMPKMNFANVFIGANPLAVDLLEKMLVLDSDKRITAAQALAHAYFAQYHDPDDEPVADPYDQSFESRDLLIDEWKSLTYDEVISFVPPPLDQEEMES

Row | SMILES | pIC50 [1] | pIC50 [2] | TNF-α production inhibitory activity stronger by a factor than that of the compound disclosed in WO 01/030778 ([3]; comparison in same experimental model (1 mg/kg vs 10 mg/kg)) | inhibition against in vivo TNF-α production induced by LPS stimulation ([3]; dose of 1 mg/kg orally, LPS 10 μg/kg i.v. after 2 hours, plasma 90 minutes after LPS) [%] | inhibition against in vivo TNF-α production induced by LPS stimulation ([3]; dose of 10 mg/kg, same experimental model) [%]
1 | CN1CCC(c2nc(-c3ccc(=O)n(-c4c(Cl)cccc4Cl)c3)c(-c3ccc(F)cc3Cl)s2)CC1 [Example 10(2), 5-[5-(2-chloro-4-fluorophenyl)-2-(1-methylpiperidin-4-yl)-1,3-thiazol-4-yl]-1-(2,6-dichlorophenyl)pyridin-2(1H)-one] | 8.85 | 8.85 | ≥ 10 | 90 | 
2 | C[C@H](Nc1cc(-c2sc(C3CCN(C)CC3)nc2-c2ccc(F)cc2)ccn1)c1ccccc1 [compound disclosed in WO 01/030778, 4-[4-(4-fluorophenyl)-2-(1-methyl-4-piperidinyl)-1,3-thiazol-5-yl]-N-[(1S)-1-phenylethyl]-2-pyridinamine, reference compound] |  |  |  |  | 95

Source: patent US7713998B2, “Nitrogenous heterocyclic compound and pharmaceutical use thereof” (Ono Pharmaceutical Co., Ltd., priority 2004, dated 2010)
